# Reference: the supplement of paper PMC4977894
# Counter-ions that a name gives are not always drawn. ± gives the standard deviation of the averaged measurements.
# Assays:
# [1] = system: Homo sapiens (human subject panel, olfactory perception); assay: perceived odor familiarity rating (rating 0-100); higher = more familiar
# Outline: (§1)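 Values for familiarity, intensity and pleasantness are averaged over subjects. The panel of 55 healthy people aged 18–50 excluded the six lowest performers and rated each paraffin-oil dilution of a molecule at high and low concentrations. Ratings were made only for stimuli the subject reported smelling, on a slider converted to a 0–100 scale.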
# [2] = system: Homo sapiens (human subject panel, olfactory perception); assay: perceived odor pleasantness rating (rating 0-100); higher = more pleasant
# Outline: as §1
# [3] = system: Homo sapiens (human subject panel, olfactory perception); assay: perceived odor intensity rating (rating 0-100); higher = stronger perceived smell
# Outline: as §1
# [4] = odor dilution in paraffin oil: 1/10
# [5] = odor dilution in paraffin oil: 1/1,000
# [6] = odor dilution in paraffin oil: 1/100,000
# [7] = odor dilution in paraffin oil: 1/10,000,000
SMILES,"perceived odor familiarity rating [1, 4]","perceived odor familiarity rating [1, 5]","perceived odor pleasantness rating [2, 4]","perceived odor pleasantness rating [2, 5]","perceived odor intensity rating [3, 4]","perceived odor intensity rating [3, 5]","perceived odor familiarity rating [1, 6]","perceived odor pleasantness rating [2, 6]","perceived odor intensity rating [3, 6]","perceived odor familiarity rating [1, 7]","perceived odor pleasantness rating [2, 7]","perceived odor intensity rating [3, 7]"
O=C(O)/C=C/C(=O)O [Fumaric acid],51.9 ± 32,44 ± 31,36.9 ± 24,49.5 ± 25,58.8 ± 26,17.1 ± 23,–,–,–,–,–,–
OCc1ccco1 [Furfuryl alcohol],–,50.3 ± 27,–,39.6 ± 23,–,56.7 ± 29,33.6 ± 28,44.6 ± 24,22.8 ± 22,–,–,–
NCC(=O)O [Glycine],47.3 ± 28,40.8 ± 27,59.4 ± 23,53.3 ± 25,50 ± 28,17.9 ± 23,–,–,–,–,–,–
COc1ccccc1O [Guaiacol (replicate)],–,–,–,–,–,–,47.2 ± 30,37.6 ± 25,67.4 ± 29,44 ± 30,36.9 ± 19,54.8 ± 28
COc1ccccc1O [Guaiacol],–,–,–,–,–,–,47.3 ± 31,41.6 ± 26,61.8 ± 28,39.4 ± 28,40.9 ± 25,48.6 ± 32
COc1ccccc1OC(=O)Cc1ccccc1 [Guaiacyl phenylacetate],58.5 ± 28,45.1 ± 32,42.2 ± 29,37.2 ± 28,71.5 ± 22,60.8 ± 28,–,–,–,–,–,–
CCCCCCC(=O)O [Heptanoic Acid],–,43.8 ± 31,–,21.5 ± 20,–,77.5 ± 23,36.5 ± 28,30.4 ± 25,49 ± 32,–,–,–
CCCCCC=O [Hexanal],–,–,–,–,–,–,41.5 ± 33,20.4 ± 20,78.2 ± 21,29 ± 26,47.2 ± 18,15 ± 16
CCCCCCOC=O [Hexyl Formate],–,42.8 ± 32,–,49 ± 28,–,60.7 ± 29,35.5 ± 28,42.2 ± 23,33.9 ± 30,–,–,–
CCCCCCOC(=O)c1ccccc1 [Hexyl benzoate (replicate)],38.4 ± 28,36.7 ± 29,31.9 ± 24,40.3 ± 23,71.5 ± 26,35.9 ± 32,–,–,–,–,–,–
CCCCCCOC(=O)c1ccccc1 [Hexyl benzoate],47.5 ± 28,37.8 ± 28,34.7 ± 25,37.4 ± 27,69.5 ± 25,40.7 ± 33,–,–,–,–,–,–
CCCCCCOC(=O)CCCCC [Hexyl hexanoate],39 ± 26,38 ± 29,43.8 ± 25,48.2 ± 23,67.7 ± 26,34.4 ± 26,–,–,–,–,–,–
CCCCCCCC(=O)OCCCCCC [Hexyl octanoate],–,42.9 ± 32,–,52.4 ± 18,–,23 ± 19,28 ± 23,46.4 ± 22,16.5 ± 24,–,–,–
CCCCCCOC(=O)CC [Hexyl propionate],–,43.1 ± 28,–,52.1 ± 24,–,59 ± 32,40.8 ± 33,38.5 ± 22,27.6 ± 32,–,–,–
II [Iodine],48.4 ± 33,41 ± 37,13.7 ± 22,51.6 ± 30,77.7 ± 29,32.4 ± 30,–,–,–,–,–,–
IC(I)I [Iodoform],52.6 ± 33,51.2 ± 29,30.7 ± 26,36.4 ± 22,84.4 ± 16,68.4 ± 23,–,–,–,–,–,–
CCCC(=O)OCCC(C)C [Isoamyl butyrate],–,51.4 ± 31,–,52.8 ± 28,–,63.4 ± 26,36.4 ± 32,45.5 ± 23,20.4 ± 28,–,–,–
CC(C)CCOC(=O)/C=C/c1ccccc1 [Isoamyl cinnamate],–,25.2 ± 25,–,38.8 ± 23,–,18.9 ± 23,40.7 ± 32,56.7 ± 24,22.5 ± 26,–,–,–

SMILES,"perceived odor familiarity rating [1, 4]","perceived odor familiarity rating [1, 5]","perceived odor pleasantness rating [2, 4]","perceived odor pleasantness rating [2, 5]","perceived odor intensity rating [3, 4]","perceived odor intensity rating [3, 5]","perceived odor familiarity rating [1, 6]","perceived odor pleasantness rating [2, 6]","perceived odor intensity rating [3, 6]","perceived odor familiarity rating [1, 7]","perceived odor pleasantness rating [2, 7]","perceived odor intensity rating [3, 7]"
CCCCCCCCCCCC(=O)OCCC(C)C [Isoamyl laurate],41.5 ± 29,31.8 ± 22,33.7 ± 25,47.7 ± 22,59.9 ± 29,20.3 ± 22,–,–,–,–,–,–
CCCCCCCC(=O)OCCC(C)C [Isoamyl octanoate],45.2 ± 30,45.4 ± 32,50 ± 25,57.6 ± 22,62.8 ± 29,24.3 ± 28,–,–,–,–,–,–
CC(C)CCN [Isoamylamine],–,–,–,–,–,–,37.5 ± 29,40.2 ± 25,37.5 ± 30,32.1 ± 27,46.1 ± 22,15.1 ± 27
CC(C)COC(=O)c1ccccc1 [Isobutyl benzoate],53.3 ± 30,41.1 ± 29,47.6 ± 29,49 ± 26,78.7 ± 20,36.7 ± 31,–,–,–,–,–,–
CC(C)COC(=O)/C=C/c1ccccc1 [Isobutyl cinnamate],45.6 ± 31,38.6 ± 30,41.3 ± 30,54 ± 27,70.4 ± 24,49.3 ± 33,–,–,–,–,–,–
CC(C)COC(=O)Cc1ccccc1 [Isobutyl phenylacetate],–,49 ± 31,–,45.5 ± 30,–,52 ± 29,33.7 ± 29,54.3 ± 24,15.7 ± 21,–,–,–
CCC(=O)OCC(C)C [Isobutyl propionate],–,48 ± 27,–,58.6 ± 23,–,57.3 ± 30,41 ± 28,47.8 ± 23,31.5 ± 28,–,–,–
CC(C)C=O [Isobutyraldehyde],–,43.1 ± 29,–,24.3 ± 22,–,77.5 ± 24,39 ± 31,27.3 ± 19,61.6 ± 28,–,–,–
CC(C)C(=O)O [Isobutyric acid],–,–,–,–,–,–,43.5 ± 31,25 ± 20,56.8 ± 30,39.6 ± 26,49 ± 27,22.6 ± 28
C/C=C\c1ccc(O)c(OC)c1 [Isoeugenol],–,71.4 ± 27,–,68.4 ± 26,–,81.6 ± 15,60 ± 29,66.9 ± 24,64.5 ± 23,–,–,–
CC=Cc1ccc(OC(=O)Cc2ccccc2)c(OC)c1 [Isoeugenyl phenylacetate],–,68 ± 29,–,56.2 ± 32,–,78.7 ± 18,55.8 ± 30,59.7 ± 26,42.4 ± 32,–,–,–
CC1=CC(=O)CC(C)(C)C1 [Isophorone],–,50.2 ± 35,–,51.5 ± 25,–,60.1 ± 25,40.4 ± 28,54.3 ± 24,21.6 ± 24,–,–,–
C=C(C)OC(C)=O [Isopropenyl acetate],–,–,–,–,–,–,31.1 ± 27,46.9 ± 24,27.1 ± 25,38.2 ± 31,45.5 ± 21,18.8 ± 26
CC(C)O [Isopropyl alcohol],–,29.4 ± 29,–,41.1 ± 24,–,11.8 ± 18,36.5 ± 28,38.3 ± 18,21.9 ± 23,–,–,–
CCCCCCCCCCCCCC(=O)OC(C)C [Isopropyl myristate],24.4 ± 24,35.2 ± 26,45.4 ± 21,50.6 ± 23,26 ± 27,20.3 ± 25,–,–,–,–,–,–
C/C=C/c1ccc2c(c1)OCO2 [Isosafrole],–,56.4 ± 30,–,59.6 ± 24,–,44.7 ± 30,29 ± 28,54.6 ± 18,14.4 ± 15,–,–,–
C[C@H](N)C(=O)O [L-Alanine],40.9 ± 32,23.8 ± 22,55.7 ± 28,45.9 ± 20,31.9 ± 30,14.7 ± 22,–,–,–,–,–,–
